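48-hour exposure; five concentrations; linearly interpolated endpoints. GI50: concentration for 50% inhibition of growth.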 The source made the active and inactive calls. Rule as the data show it: active = GI50 up to about 1.1 µM and inactive = higher.
How the values were obtained:
Assay in all cases: NCI-60 cell line screen, 48 h
[1] = test system: ACHN
[2] = test system: HCT-15
[3] = test system: HCC 2998
[4] = test system: SK-OV-3
[5] = test system: NCI-H226
[6] = test system: SK-MEL-5
[7] = test system: MDA-MB-231
[8] = test system: UACC-257
[9] = test system: HL-60
[10] = test system: M14
[11] = test system: LOX IMVI
[12] = test system: OVCAR-8
[13] = test system: A498
[14] = test system: SK-MEL-28
[15] = test system: MCF7
[16] = test system: OVCAR-3
[17] = test system: SF-268
[18] = test system: Malme-3M
[19] = test system: MOLT-4
[20] = test system: OVCAR-5

SMILES	GI50 [1]	GI50 [2] [µM]	GI50 [3]	GI50 [4]	GI50 [5]	GI50 [6]	GI50 [7]	GI50 [8]	GI50 [9]	GI50 [10]	GI50 [11]	GI50 [12]	GI50 [13]	GI50 [14]	GI50 [15]	GI50 [16]	GI50 [17]	GI50 [18]	GI50 [19]	GI50 [20]
COc1cc(/N=N/c2cccc(S(N)(=O)=O)c2)c2ccccc2c1N	15.5 µM (inactive)	18.2	8.04 µM (inactive)	15.6 µM (inactive)	19.9 µM (inactive)	1.8 µM (inactive)	10.5 µM (inactive)	1.54 µM (inactive)	5.2 µM (inactive)	1.91 µM (inactive)	3.4 µM (inactive)	16.3 µM (inactive)	19.7 µM (inactive)	7.11 µM (inactive)	6.84 µM (inactive)	4.86 µM (inactive)	15 µM (inactive)	1.7 µM (inactive)	5.65 µM (inactive)	17.5 µM (inactive)
CCN1C=C/C(=C\C=C\c2cc[n+](CC)c3ccccc23)c2ccccc21	11.9 µM (inactive)	16.4	7.24 µM (inactive)	4.66 µM (inactive)	3.36 µM (inactive)	8.99 µM (inactive)	3.31 µM (inactive)	3.18 µM (inactive)	0.0135 µM (active)	5.02 µM (inactive)	–	4.28 µM (inactive)	3.78 µM (inactive)	8.99 µM (inactive)	6.28 µM (inactive)	2.49 µM (inactive)	4.99 µM (inactive)	13.4 µM (inactive)	3.2 µM (inactive)	4.12 µM (inactive)
COC(=O)c1c2c(cc3c1CC1(Cc4ccc(C(C)=O)cc4C1)C3)CCC2 (stereo unspecified)	66.8 µM (inactive)	31.8	> 10 µM (inactive)	63.2 µM (inactive)	67.1 µM (inactive)	18 µM (inactive)	20.4 µM (inactive)	25.2 µM (inactive)	17.1 µM (inactive)	–	21.1 µM (inactive)	68.9 µM (inactive)	31.2 µM (inactive)	63.5 µM (inactive)	37.3 µM (inactive)	> 100 µM (inactive)	83.2 µM (inactive)	15.7 µM (inactive)	21 µM (inactive)	> 100 µM (inactive)
COc1ccc(C(c2ccc(OC)cc2)N2C(=O)CCC2C(=O)O)cc1 (stereo unspecified)	> 100 µM (inactive)	> 100	> 100 µM (inactive)	> 100 µM (inactive)	> 100 µM (inactive)	> 100 µM (inactive)	> 100 µM (inactive)	> 100 µM (inactive)	> 100 µM (inactive)	> 100 µM (inactive)	> 100 µM (inactive)	> 100 µM (inactive)	> 100 µM (inactive)	> 100 µM (inactive)	> 100 µM (inactive)	> 100 µM (inactive)	> 100 µM (inactive)	> 100 µM (inactive)	> 100 µM (inactive)	> 100 µM (inactive)
O=C(c1ccccc1)c1c(C(F)(F)F)[n+]([O-])c2cc(F)c(F)cc2[n+]1[O-]	0.0929 µM (active)	0.49	0.589 µM (active)	5.97 µM (inactive)	1.73 µM (inactive)	0.877 µM (active)	0.61 µM (active)	1.79 µM (inactive)	< 0.144 µM (active)	0.698 µM (active)	–	0.634 µM (active)	2.56 µM (inactive)	1.26 µM (inactive)	0.349 µM (active)	0.653 µM (active)	1.32 µM (inactive)	0.161 µM (active)	0.242 µM (active)	1.51 µM (inactive)
C1=CC(=[N+]2N=C(c3ccccc3)CC2c2ccccc2)C=CC1=C1SC(c2ccccc2)(c2ccccc2)c2ccccc21.[O-][Cl+3]([O-])([O-])[O-] (stereo unspecified)	> 100 µM (inactive)	> 100	> 100 µM (inactive)	> 100 µM (inactive)	> 100 µM (inactive)	> 100 µM (inactive)	> 100 µM (inactive)	–	> 100 µM (inactive)	60.8 µM (inactive)	–	> 100 µM (inactive)	> 100 µM (inactive)	> 100 µM (inactive)	> 100 µM (inactive)	> 100 µM (inactive)	> 100 µM (inactive)	> 100 µM (inactive)	> 100 µM (inactive)	> 100 µM (inactive)
O=c1[nH]c2cccc([N+](=O)[O-])c2c(=O)n1-c1ccc(Cl)cc1	8.51 µM (inactive)	12.1	14 µM (inactive)	14.3 µM (inactive)	13.6 µM (inactive)	9.71 µM (inactive)	15.8 µM (inactive)	11.5 µM (inactive)	11.7 µM (inactive)	10.7 µM (inactive)	16.1 µM (inactive)	11.8 µM (inactive)	13.9 µM (inactive)	13.4 µM (inactive)	9.91 µM (inactive)	10.8 µM (inactive)	12.2 µM (inactive)	12.8 µM (inactive)	19 µM (inactive)	16.3 µM (inactive)
CCCC(=O)OC1CC(n2cc(F)c(=O)[nH]c2=O)OC1CO (stereo unspecified)	0.0506 µM (active)	> 7.64	0.0202 µM (active)	4.08 µM (inactive)	> 10 µM (inactive)	0.329 µM (active)	> 8.95 µM (inactive)	> 4.49 µM (inactive)	0.646 µM (active)	0.33 µM (active)	0.0149 µM (active)	0.171 µM (active)	2.07 µM (inactive)	> 7.21 µM (inactive)	0.036 µM (active)	3.69 µM (inactive)	0.0356 µM (active)	> 8.79 µM (inactive)	> 6.89 µM (inactive)	> 10 µM (inactive)
COc1cc2c(cc1O)[C@]1(Cc3ccc4c(c3C1=O)OCO4)N(C)CC2	> 100 µM (inactive)	> 100	> 100 µM (inactive)	> 100 µM (inactive)	> 100 µM (inactive)	> 100 µM (inactive)	> 100 µM (inactive)	> 100 µM (inactive)	> 100 µM (inactive)	> 100 µM (inactive)	–	> 100 µM (inactive)	> 100 µM (inactive)	> 100 µM (inactive)	> 100 µM (inactive)	> 100 µM (inactive)	> 100 µM (inactive)	> 100 µM (inactive)	> 100 µM (inactive)	> 100 µM (inactive)
COc1cccc(NC(=O)CC(=O)Nc2cccc(OC)c2)c1	> 100 µM (inactive)	> 100	> 100 µM (inactive)	> 100 µM (inactive)	> 100 µM (inactive)	> 100 µM (inactive)	> 100 µM (inactive)	> 100 µM (inactive)	> 100 µM (inactive)	> 100 µM (inactive)	> 100 µM (inactive)	> 100 µM (inactive)	> 100 µM (inactive)	> 100 µM (inactive)	> 100 µM (inactive)	> 100 µM (inactive)	> 100 µM (inactive)	> 100 µM (inactive)	> 100 µM (inactive)	–
CC(=O)N(C(=O)CC(=O)N1N=C(c2ccccc2)C(/N=N/c2ccccc2[N+](=O)[O-])C1=O)c1ccc(Cl)cc1 (stereo unspecified)	> 10 µM (inactive)	> 10	> 10 µM (inactive)	> 10 µM (inactive)	> 10 µM (inactive)	> 10 µM (inactive)	> 10 µM (inactive)	> 10 µM (inactive)	> 10 µM (inactive)	–	> 10 µM (inactive)	> 10 µM (inactive)	> 10 µM (inactive)	> 10 µM (inactive)	> 10 µM (inactive)	> 10 µM (inactive)	> 10 µM (inactive)	> 10 µM (inactive)	> 10 µM (inactive)	> 10 µM (inactive)
CCOC(CN=C=S)OCC	> 10 µM (inactive)	> 10	> 10 µM (inactive)	> 10 µM (inactive)	> 10 µM (inactive)	> 10 µM (inactive)	> 10 µM (inactive)	> 10 µM (inactive)	3.83 µM (inactive)	> 10 µM (inactive)	> 10 µM (inactive)	> 10 µM (inactive)	> 10 µM (inactive)	> 10 µM (inactive)	9.27 µM (inactive)	> 10 µM (inactive)	> 10 µM (inactive)	> 10 µM (inactive)	> 10 µM (inactive)	–
CC1C2CC(C/C2=N/O)C1(C)C (stereo unspecified)	> 100 µM (inactive)	–	> 100 µM (inactive)	> 100 µM (inactive)	> 100 µM (inactive)	> 100 µM (inactive)	> 100 µM (inactive)	> 100 µM (inactive)	> 100 µM (inactive)	> 100 µM (inactive)	–	> 100 µM (inactive)	> 100 µM (inactive)	> 100 µM (inactive)	> 100 µM (inactive)	> 100 µM (inactive)	> 100 µM (inactive)	> 100 µM (inactive)	> 100 µM (inactive)	> 100 µM (inactive)
O=C1OC(C(O)CO)C(C(O)CO)OC1=O (stereo unspecified)	> 10 µM (inactive)	> 10	> 10 µM (inactive)	–	> 10 µM (inactive)	> 10 µM (inactive)	> 10 µM (inactive)	> 10 µM (inactive)	> 10 µM (inactive)	> 10 µM (inactive)	–	> 10 µM (inactive)	> 10 µM (inactive)	> 10 µM (inactive)	> 10 µM (inactive)	> 10 µM (inactive)	> 10 µM (inactive)	> 10 µM (inactive)	> 10 µM (inactive)	> 10 µM (inactive)
O=C(NCCCNCCCNC(=O)c1cc(-c2ccccc2)nc2ccccc12)c1cc(-c2ccccc2)nc2ccccc12	2.12 µM (inactive)	2.6	0.834 µM (active)	2.21 µM (inactive)	1.69 µM (inactive)	1.78 µM (inactive)	2.01 µM (inactive)	1.97 µM (inactive)	1.4 µM (inactive)	1.79 µM (inactive)	1.8 µM (inactive)	2.56 µM (inactive)	1.93 µM (inactive)	1.77 µM (inactive)	1.66 µM (inactive)	1.46 µM (inactive)	1.83 µM (inactive)	2.13 µM (inactive)	–	1.87 µM (inactive)
